For one test, the target named is T1, Beta1 (Homo sapiens, UniProt P08588).
T1 construct: purchased NIMH Psychoactive Drug Screening Program (PDSP)
The test is described as follows: PDSP primary binding Beta1. The note with it: 1.5 h; primary binding, 10,000 nM; last figure of the line = mean of the 4 before it; read-out: Beta1, PDSP raw data, mean. How it is done: (§1) To determine if any off-target receptor-binding effects are present, all the novel ligands were sent to the National Institute of Mental Health (NIMH), Psychoactive Drug Screening Program (PDSP). The ligands were screened over a panel of 47 receptors, ion channels, and transporters to determine any other possible interactions with […]. The hERG-binding was also determined. […] No binding of the test compounds to calcium channels was observed. […] It is necessary to screen the compounds for hERG-binding during the early process of drug discovery. The unintentional binding of many drugs to hERG can cause blockade of hERG K+ channels in the heart, which can cause many side effects including cardiac arrhythmias and sudden death. […] All of the α5 imidazodiazepines were tested for hERG-binding.
(§2) The NIMH PDSP assay protocol book [https://kidbdev.med.unc.edu/databases/PDSP%20Protocols%20II%202013-03-28.pdf accessed on 23 April 2023]. describes the protocols for primary and secondary radio-ligand binding assays. These assays were carried out in a final volume of 125 µL per well in the appropriate binding buffer.
(§3) The binding of a ligand to a receptor, ion channel, or transporter was determined in the […] of 10 µM of the appropriate reference compound. […] Plates were incubated in the dark for 90 min at rt, and the reactions were stopped by vacuum filtration onto 0.3% polyethyleneimine (PEI) soaked 96-well filter mats using a 96-well Filtermateharvester. This was followed by three washes with cold PBS buffer. Radioactivity was then counted on a Microbeta counter. Nonlinear regression was used to analyze the data with N = 6 replicates.

In a further test the target is T2, 5-HT5A (Homo sapiens, UniProt P47898).
T2 construct: purchased NIMH Psychoactive Drug Screening Program (PDSP)
The test is described as follows: PDSP primary binding 5-HT5A. The settings on record: 1.5 h; primary binding, 10,000 nM; last figure of the line = mean of the 4 before it; read-out: 5-HT5A, PDSP raw data, mean. How it is done: as §1, §2, §3

Another test deals with T3, D1 (Homo sapiens, UniProt P21728).
T3 construct: purchased NIMH Psychoactive Drug Screening Program (PDSP)
Kind of test: PDSP primary binding D1. The note with it: 1.5 h; primary binding, 10,000 nM; last figure of the line = mean of the 4 before it; read-out: D1, PDSP raw data, mean. How it is done:
as §1, §2, §3

The next test concerns the target T4, Alpha2A (Homo sapiens, UniProt P08913).
T4 construct: purchased NIMH Psychoactive Drug Screening Program (PDSP)
T4 sequence (P08913 1-465): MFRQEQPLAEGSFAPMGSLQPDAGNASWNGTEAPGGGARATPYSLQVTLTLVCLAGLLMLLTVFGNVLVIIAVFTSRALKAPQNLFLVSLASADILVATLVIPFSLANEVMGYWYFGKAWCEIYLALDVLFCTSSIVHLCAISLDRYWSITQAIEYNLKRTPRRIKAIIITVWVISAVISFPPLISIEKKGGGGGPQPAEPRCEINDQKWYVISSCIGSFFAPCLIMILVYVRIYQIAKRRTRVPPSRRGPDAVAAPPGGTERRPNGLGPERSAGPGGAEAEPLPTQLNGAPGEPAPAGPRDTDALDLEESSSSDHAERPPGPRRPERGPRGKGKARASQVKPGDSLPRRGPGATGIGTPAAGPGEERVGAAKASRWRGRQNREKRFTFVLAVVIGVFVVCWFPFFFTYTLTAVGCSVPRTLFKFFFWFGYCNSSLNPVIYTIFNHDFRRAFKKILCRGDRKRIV
Kind of test: PDSP primary binding Alpha2A. The note with it: 1.5 h; primary binding, 10,000 nM; last figure of the line = mean of the 4 before it; read-out: Alpha2A, PDSP raw data, mean. How it is done: as §1, §2, §3

The target of the next test is T5, M5 (Homo sapiens, UniProt P08912).
T5 construct: purchased NIMH Psychoactive Drug Screening Program (PDSP)
T5 sequence (P08912 1-532): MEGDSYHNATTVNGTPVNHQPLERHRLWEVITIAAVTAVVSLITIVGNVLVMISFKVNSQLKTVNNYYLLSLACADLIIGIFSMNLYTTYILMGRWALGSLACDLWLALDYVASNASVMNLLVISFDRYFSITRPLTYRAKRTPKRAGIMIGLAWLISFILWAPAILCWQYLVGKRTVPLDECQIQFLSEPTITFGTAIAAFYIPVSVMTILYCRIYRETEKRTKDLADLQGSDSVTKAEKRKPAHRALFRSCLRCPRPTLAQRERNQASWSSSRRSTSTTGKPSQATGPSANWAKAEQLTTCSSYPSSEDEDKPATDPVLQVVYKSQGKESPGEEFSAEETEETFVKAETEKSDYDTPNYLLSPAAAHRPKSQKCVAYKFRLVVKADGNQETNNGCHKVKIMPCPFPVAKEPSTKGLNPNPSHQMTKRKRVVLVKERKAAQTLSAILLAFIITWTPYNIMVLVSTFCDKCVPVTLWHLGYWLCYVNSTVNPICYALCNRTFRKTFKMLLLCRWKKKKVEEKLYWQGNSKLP
Kind of test: PDSP primary binding M5. The settings on record: primary binding, 10,000 nM; last figure of the line = mean of the 4 before it; read-out: M5, PDSP raw data, mean. How it is done: as §1, §2, §3

For another test, the target named is T6, 5-HT2B (Homo sapiens, UniProt P41595).
T6 construct: purchased NIMH Psychoactive Drug Screening Program (PDSP)
The test is described as follows: PDSP primary binding 5-HT2B. The note with it: 1.5 h; primary binding, 10,000 nM; last figure of the line = mean of the 4 before it; read-out: 5-HT2B, PDSP raw data, mean. How it is done: as §1, §2, §3

A further test concerns the target T7, H4 (Homo sapiens, UniProt Q9H3N8).
T7 construct: purchased NIMH Psychoactive Drug Screening Program (PDSP)
Kind of test: PDSP primary binding H4. The settings on record: primary binding, 10,000 nM; last figure of the line = mean of the 4 before it; read-out: H4, PDSP raw data, mean. How it is done: as §1, §2, §3

The next test deals with T8, M4 (Homo sapiens, UniProt P08173).
T8 construct: purchased NIMH Psychoactive Drug Screening Program (PDSP)
T8 sequence (P08173 1-479): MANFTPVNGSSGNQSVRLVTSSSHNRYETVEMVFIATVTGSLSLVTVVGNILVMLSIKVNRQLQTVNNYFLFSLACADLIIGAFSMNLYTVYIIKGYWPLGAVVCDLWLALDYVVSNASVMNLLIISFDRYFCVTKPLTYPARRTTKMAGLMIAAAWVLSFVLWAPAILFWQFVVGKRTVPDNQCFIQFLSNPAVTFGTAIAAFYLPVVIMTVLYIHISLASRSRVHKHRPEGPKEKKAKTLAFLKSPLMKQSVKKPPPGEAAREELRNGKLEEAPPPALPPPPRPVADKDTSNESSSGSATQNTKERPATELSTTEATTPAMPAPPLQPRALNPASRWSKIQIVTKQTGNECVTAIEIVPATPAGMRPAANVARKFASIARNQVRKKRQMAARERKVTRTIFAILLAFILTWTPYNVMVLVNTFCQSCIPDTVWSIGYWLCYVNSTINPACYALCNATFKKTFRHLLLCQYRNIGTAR
Kind of test: PDSP primary binding M4. The note with it: primary binding, 10,000 nM; last figure of the line = mean of the 4 before it; read-out: M4, PDSP raw data, mean. How it is done:
as §1, §2, §3

T6 sequence (P41595 whole entry): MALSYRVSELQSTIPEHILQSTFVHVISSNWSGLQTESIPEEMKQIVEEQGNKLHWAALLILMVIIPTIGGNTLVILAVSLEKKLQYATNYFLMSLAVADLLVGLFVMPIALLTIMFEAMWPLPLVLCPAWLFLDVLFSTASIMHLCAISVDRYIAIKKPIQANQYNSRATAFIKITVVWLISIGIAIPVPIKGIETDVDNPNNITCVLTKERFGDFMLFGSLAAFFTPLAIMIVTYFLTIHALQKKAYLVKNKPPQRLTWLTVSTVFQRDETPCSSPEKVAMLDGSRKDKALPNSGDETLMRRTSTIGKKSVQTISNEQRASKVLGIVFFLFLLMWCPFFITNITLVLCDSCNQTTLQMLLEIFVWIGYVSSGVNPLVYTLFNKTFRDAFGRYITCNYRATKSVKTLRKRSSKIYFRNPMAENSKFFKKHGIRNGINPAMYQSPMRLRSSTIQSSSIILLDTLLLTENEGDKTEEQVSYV
T1 sequence (P08588 whole entry): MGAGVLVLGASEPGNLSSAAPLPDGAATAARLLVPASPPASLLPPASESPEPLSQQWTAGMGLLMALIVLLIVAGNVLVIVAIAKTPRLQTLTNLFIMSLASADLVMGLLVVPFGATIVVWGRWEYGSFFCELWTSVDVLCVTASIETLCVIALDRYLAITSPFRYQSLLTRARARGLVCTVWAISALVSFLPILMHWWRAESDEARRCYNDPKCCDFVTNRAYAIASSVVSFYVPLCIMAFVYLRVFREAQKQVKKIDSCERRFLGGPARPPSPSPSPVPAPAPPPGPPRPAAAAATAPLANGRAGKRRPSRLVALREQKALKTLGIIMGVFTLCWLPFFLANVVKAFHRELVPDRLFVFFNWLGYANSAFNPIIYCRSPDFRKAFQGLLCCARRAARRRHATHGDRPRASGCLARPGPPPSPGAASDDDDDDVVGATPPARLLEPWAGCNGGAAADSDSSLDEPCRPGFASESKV
T7 sequence (Q9H3N8 whole entry): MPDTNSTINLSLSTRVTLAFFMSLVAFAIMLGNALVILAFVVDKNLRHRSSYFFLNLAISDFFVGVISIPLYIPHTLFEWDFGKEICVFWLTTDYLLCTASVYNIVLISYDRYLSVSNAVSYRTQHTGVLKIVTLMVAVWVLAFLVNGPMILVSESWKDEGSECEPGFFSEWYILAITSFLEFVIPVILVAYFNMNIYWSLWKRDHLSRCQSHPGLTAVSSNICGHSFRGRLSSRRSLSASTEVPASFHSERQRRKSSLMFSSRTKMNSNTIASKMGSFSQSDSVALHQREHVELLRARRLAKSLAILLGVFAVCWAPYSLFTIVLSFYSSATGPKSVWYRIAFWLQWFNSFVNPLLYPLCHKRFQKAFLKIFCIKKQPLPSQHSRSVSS
T2 sequence (P47898 whole entry): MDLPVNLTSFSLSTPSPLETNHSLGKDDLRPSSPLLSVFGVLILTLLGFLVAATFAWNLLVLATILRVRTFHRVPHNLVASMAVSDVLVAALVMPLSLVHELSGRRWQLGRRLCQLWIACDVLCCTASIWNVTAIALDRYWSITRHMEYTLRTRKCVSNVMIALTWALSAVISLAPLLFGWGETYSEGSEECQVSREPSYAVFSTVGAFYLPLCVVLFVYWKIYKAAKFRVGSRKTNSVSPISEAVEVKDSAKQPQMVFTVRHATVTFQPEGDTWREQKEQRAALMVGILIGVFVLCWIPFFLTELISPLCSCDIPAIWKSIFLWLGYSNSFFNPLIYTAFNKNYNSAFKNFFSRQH
T3 sequence (P21728 whole entry): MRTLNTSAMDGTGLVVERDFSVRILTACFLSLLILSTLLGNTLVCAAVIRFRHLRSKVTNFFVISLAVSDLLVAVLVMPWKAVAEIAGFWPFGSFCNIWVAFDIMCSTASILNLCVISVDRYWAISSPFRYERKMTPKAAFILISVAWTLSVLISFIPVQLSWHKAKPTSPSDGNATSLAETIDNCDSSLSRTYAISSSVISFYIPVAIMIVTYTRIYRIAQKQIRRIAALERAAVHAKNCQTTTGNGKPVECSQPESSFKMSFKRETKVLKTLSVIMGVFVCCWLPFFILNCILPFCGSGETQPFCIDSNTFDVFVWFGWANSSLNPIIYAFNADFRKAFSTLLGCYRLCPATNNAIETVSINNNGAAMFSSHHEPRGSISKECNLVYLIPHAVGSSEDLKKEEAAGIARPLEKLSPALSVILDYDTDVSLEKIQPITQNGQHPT

Consider `CCc1noc(-c2ncn3c2[C@@H](C)N=C(c2ccccc2F)c2cc(Cl)ccc2-3)n1` [Compound 36, (R)-5-(8-Chloro-6-(2′-fluorophenyl)-4-methyl-4H-benzo[f]imidazo[1,5-a][1,4]diazepin-3-yl)-3-ethyl-1,2,4-oxadiazole], for which the inhibition at 10 µM was -14.7% on Beta1; -1.84% at 5-HT5A; 42.8% at D1; -14.4% at Alpha2A; -10.7% at M5; 3.47% on 5-HT2B. The inhibition at 10 µM at H4 was 28.9%; on M4 it was -5.41%.

Turning to `C[C@H]1N=C(c2ccccc2F)c2cc(-c3ccccc3)ccc2-n2cnc(C(=O)N(C)C)c21` [Compound 5, (R)-6-(2′-Fluorophenyl)-N,N,4-trimethyl-8-phenyl-4H-benzo[f]imidazo[1,5-a][1,4]diazepine-3-carboxamide], the inhibition at 10 µM on Beta1 was -15.8%; at 5-HT5A it was 53.6%; on D1, -35.4%; on Alpha2A it was 5.99%; at M5 it was -0.76%; on 5-HT2B, 26.5%. Moreover, the values for the inhibition at 10 µM at H4 and at M4 were 0.9% and -3.29%, respectively.

For `C[C@H]1N=C(c2ccccc2F)c2cc(Cl)ccc2-n2cnc(-c3nc(C4CC4)no3)c21` [Compound 38, (R)-5-(8-Chloro-6-(2′-fluorophenyl)-4-methyl-4H-benzo[f]imidazo[1,5-a][1,4]diazepin-3-yl)-3-cyclopropyl-1,2,4-oxadiazole], the inhibition at 10 µM on Beta1 was 9.95%; at 5-HT5A, -2.84%; on D1, 43%; on Alpha2A, 15.6%; on M5, -5.18%; on 5-HT2B, 10%. Also, the inhibition at 10 µM on H4 is 5.24%; at M4, -8.66%.

As for `C#Cc1ccc2c(c1)C(c1ccccc1F)=N[C@H](C)c1c(C(=S)N(C)C)ncn1-2` [Compound 33, (R)-8-Ethynyl-6-(2′-fluorophenyl)-N,N,4-trimethyl-4H-benzo[f]imidazo[1,5-a][1,4]diazepine-3-carbothioamide], the inhibition at 10 µM at Beta1 was -15.8%; at 5-HT5A, 53.6%; on D1, -35.4%; at Alpha2A, 5.99%; at M5, -0.76%; on 5-HT2B, 26.5%. Further, the results for the inhibition at 10 µM at H4 and at M4 were 0.9% and -3.29%, respectively.

With `C#Cc1ccc2c(c1)C(c1ccccc1Cl)=N[C@H](C)c1c(C(=O)NC)ncn1-2` [Compound 21, (R)-6-(2′-Chlorophenyl)-8-ethynyl-N,4-dimethyl-4H-benzo[f]imidazo[1,5-a][1,4]diazepine-3-carboxamide], the inhibition at 10 µM at Beta1 is 13.1%; at 5-HT5A, 2.76%; at D1, 9.47%; at Alpha2A, -1.1%; at M5 it was -8.03%; at 5-HT2B, -5.07%. The inhibition at 10 µM on H4 is -4.41%; at M4, -16.9%.

In the case of `CCc1noc(-c2ncn3c2[C@@H](C)N=C(c2ccccc2F)c2cc(C4CC4)ccc2-3)n1` [Compound 46, (R)-5-(8-Cyclopropyl-6-(2′-fluorophenyl)-4-methyl-4H-benzo[f]imidazo[1,5-a][1,4]diazepin-3-yl)-3-ethyl-1,2,4-oxadiazole], the inhibition at 10 µM was -26.4% at Beta1; 23.6% at 5-HT5A; 74.6% at D1; 29.2% at Alpha2A; 5.69% at M5; 25.1% on 5-HT2B. For the same compound, the inhibition at 10 µM is 21.7% at H4 and -0.8% on M4.

Regarding `CCc1noc(-c2ncn3c2CN=C(c2ccccc2F)c2cc(C4CC4)ccc2-3)n1` [Compound 44, 5-(8-Cyclopropyl-6-(2′-fluorophenyl)-4H-benzo[f]imidazo[1,5-a][1,4]diazepin-3-yl)-3-ethyl-1,2,4-oxadiazole], the inhibition at 10 µM is -5.19% on Beta1; 5.08% on 5-HT5A; 49.6% on D1; 14.4% on Alpha2A; -14.1% on M5; 18.5% at 5-HT2B. The inhibition at 10 µM at H4 was 20.6%; at M4, -4.92%.

As for `C#Cc1ccc2c(c1)C(c1ccccc1Cl)=N[C@H](C)c1c(C(=O)N(C)CC)ncn1-2` [Compound 29], the inhibition at 10 µM on Beta1 is 8.7%; on 5-HT5A, -3.73%; on D1, -31.5%; at Alpha2A, 7.96%; at M5 it was -17.5%; on 5-HT2B, 30%. Also, the inhibition at 10 µM is -21.5% at H4 and 4.91% at M4.

Consider `CCc1noc(-c2ncn3c2[C@@H](C)N=C(c2ccccc2F)c2cc(-c4ccccc4)ccc2-3)n1` [Compound 35, (R)-3-Ethyl-5-(6-(2′-fluorophenyl)-4-methyl-8-phenyl-4H-benzo[f]imidazo[1,5-a][1,4]diazepin-3-yl)-1,2,4-oxadiazole], for which the inhibition at 10 µM at Beta1 is 0.99%; at 5-HT5A, 19.5%; on D1, 29.2%; at Alpha2A it was 34.5%; at M5, -7.39%; on 5-HT2B it was 13.8%. The results for the inhibition at 10 µM at H4 and on M4 were 54.7% and -4.16%, respectively.
